Key:
Experiment in all cases: In vitro cell viability assay (CellTiter-Glo, 6 days)
BxPC-3 cells = format: cell-based; settings: Homo sapiens, free antifolate drugs, Table 1d
Procedure: (§1) FaDu, BxPC-3, HeLa, MV4-11, and RAJI cell lines were obtained from Deutsche Sammlung von Mikroorganismen und Zellkulturen (Leipzig, Germany). Jurkat NucLight Red cells were obtained from Essen BioScience Inc. (Ann Arbor, Mich., USA). SK-BR-3 and SK-OV-3 cells were cultured in McCoys 5A medium (Lonza; Walkersville, Md., USA) supplemented with 10% v/w Fetal Bovine Serum (FBS), Heat-inactivated (HI) (Gibco-Life Technologies; Carlsbad, Calif.) and 80 U/mL Pen/Strep (Gibco-Life Technologies), at 37° C. in a humidified incubator under 5% CO2 atmosphere. SW-620 cells were similarly maintained in RPMI 1640 medium (Lonza), containing 10% v/w FBS HI and 80 U/mL Pen/Strep. A-549 cells were similarly maintained in F-12K Nutrient Mixture (1×) (Gibco-Life Technologies) media supplemented with 80 U/mL Pen/Strep and 5% v/w FBS, which was Qualified (Q) (Gibco-Life Technologies). BT-474 and AU-565 cells were similarly maintained in RPMI 1640 medium (Lonza), containing 10% v/w FBS, which was Qualified (Q) (Gibco-Life Technologies), and 80 U/mL Pen/Strep. […] Jurkat NucLight Red cells were similarly maintained in RPMI 1640 medium (Lonza), containing 10% v/w FBS HI, 80 U/mL Pen/Strep and 0.5 μg/mL Puromycin (Gibco-Life Technologies). FaDu cells were cultured in EMEM medium (Lonza) supplemented with 10% v/w FBS HI (Gibco-Life Technologies), 1× GlutaMAX (Gibco-Life Technologies), and 80 U/mL Pen/Strep (Gibco-Life Technologies), at 37° C. in a humidified incubator under 5% CO2 atmosphere.
(§2) After an overnight incubation, 10 serial log 10 dilutions of the free drugs were made in DMSO (Sigma-Aldrich). These free drug dose-response curves were 10-times further diluted in complete growth medium. For the ADCs according to the invention 10 serial log 10 dilutions were made in complete growth medium. 10 μL of a composition comprising a free drug or an ADC according to the invention was added to the assay plate (final DMSO content for free drugs was 1%). […] […] Percentage cell survival was calculated by dividing the measured luminescence for each free drug or ADC according to the concentration with the average mean of untreated cells (1% or 0.1% DMSO control (for free drugs) or 100% complete growth medium (for ADCs)) multiplied by 100.
(§3) Curves were fitted by non-linear regression using the sigmoidal dose-response equation with variable slope (four parameters) using curve-fitting software (GraphPad Prism, version 9.4.0 for Windows, GraphPad, San Diego, Calif. or Electronic Laboratory Notebook (ELN) add-in BioAssay, version 19.1.0.0218, Perkin Elmer, Waltham, Mass.). Relative IC50 values were calculated as the concentration that gives a response halfway between bottom and top of the curve, when using a 4-parameter logistic fit. Data were reported as mean IC50 value of at least one experiment performed in duplicate.

FaDu cells = format: cell-based; settings: Homo sapiens, free antifolate drugs, Table 1d
Procedure: as §1, §2, §3

[1] = tested on: Jurkat NucLight Red cells; format: cell-based, human; settings: Homo sapiens, Jurkat, free antifolate drugs
Method in brief: (§4)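 Cells plated overnight, then given 10 serial log10 dilutions of free drug (1% final DMSO) or ADC in medium. After 6 days, CellTiter-Glo luminescence expressed as % of untreated control. IC50 taken as the midpoint of a 4-parameter logistic fit; mean of at least one experiment in duplicate.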

SK-BR-3 cells = format: cell-based, human; settings: Homo sapiens
Method in brief: as §4

AU-565 cells = format: cell-based, human; settings: Homo sapiens, AU565, free antifolate drugs, Table 1c
Method in brief: as §4

HeLa cells = format: cell-based; settings: Homo sapiens, free antifolate drugs, Table 1d
Procedure: (§5) Human tumor cell lines SK-BR-3, SW-620, A-549, BT-474, Jurkat Clone E6-1, AU-565, and SK-OV-3 were obtained from American Type Culture Collection (Rockville, Md., USA). FaDu, BxPC-3, HeLa, MV4-11, and RAJI cell lines were obtained from Deutsche Sammlung von Mikroorganismen und Zellkulturen (Leipzig, Germany). Jurkat NucLight Red cells were obtained from Essen BioScience Inc. (Ann Arbor, Mich., USA). SK-BR-3 and SK-OV-3 cells were cultured in McCoys 5A medium (Lonza; Walkersville, Md., USA) supplemented with 10% v/w Fetal Bovine Serum (FBS), Heat-inactivated (HI) (Gibco-Life Technologies; Carlsbad, Calif.) and 80 U/mL Pen/Strep (Gibco-Life Technologies), at 37° C. in a humidified incubator under 5% CO2 atmosphere. SW-620 cells were similarly maintained in RPMI 1640 medium (Lonza), containing 10% v/w FBS HI and 80 U/mL Pen/Strep. A-549 cells were similarly maintained in F-12K Nutrient Mixture (1×) (Gibco-Life Technologies) media supplemented with 80 U/mL Pen/Strep and 5% v/w FBS, which was Qualified (Q) (Gibco-Life Technologies). BT-474 and AU-565 cells were similarly maintained in RPMI 1640 medium (Lonza), containing 10% v/w FBS, which was Qualified (Q) (Gibco-Life Technologies), and 80 U/mL Pen/Strep. Jurkat Clone E6-1, BxPC-3, HeLa, MV4-11, and RAJI cells were similarly maintained in RPMI 1640 medium (Lonza), containing 10% v/w FBS HI and 80 U/mL Pen/Strep. Jurkat NucLight Red cells were similarly maintained in RPMI 1640 medium (Lonza), containing 10% v/w FBS HI, 80 U/mL Pen/Strep and 0.5 μg/mL Puromycin (Gibco-Life Technologies). FaDu cells were cultured in EMEM medium (Lonza) supplemented with 10% v/w FBS HI (Gibco-Life Technologies), 1× GlutaMAX (Gibco-Life Technologies), and 80 U/mL Pen/Strep (Gibco-Life Technologies), at 37° C. in a humidified incubator under 5% CO2 atmosphere.
(§6) Cells in complete growth medium were plated in 96-well plates (90 μL/well) and incubated at 37° C., 5% CO2 at the following cell densities: 6500 SK-BR-3, 4000 SW-620, 2500 A-549, 10000 BT-474, 3000 Jurkat Clone E6-1, 5000 AU-565, 1250 FaDu, 1250 BxPC-3, 1000 HeLa, 7500 MV4-11, 1000 RAJI, 3000 Jurkat NucLight Red, and 4000 SK-OV-3 cells per well. After an overnight incubation, 10 serial log 10 dilutions of the free drugs were made in DMSO (Sigma-Aldrich). These free drug dose-response curves were 10-times further diluted in complete growth medium. For the ADCs according to the invention 10 serial log 10 dilutions were made in complete growth medium. 10 μL of a composition comprising a free drug or an ADC according to the invention was added to the assay plate (final DMSO content for free drugs was 1%). […] Cell viability was assessed after 6 days using a luminescent assay kit (CellTiter-Glo™ (CTG), Promega Corporation) according to the manufacturer's instructions. Percentage cell survival was calculated by dividing the measured luminescence for each free drug or ADC according to the concentration with the average mean of untreated cells (1% or 0.1% DMSO control (for free drugs) or 100% complete growth medium (for ADCs)) multiplied by 100.
as §3

RAJI cells = format: cell-based; settings: Homo sapiens, free antifolate drugs, Table 1d
Procedure: as §5, §6, §3

MV4-11 cells = format: cell-based; settings: Homo sapiens, free antifolate drugs, Table 1d
Procedure: as §5, §6, §3

Jurkat Clone E6-1 cells = format: cell-based; settings: Homo sapiens, free antifolate drugs, Table 1d
Procedure: Human tumor cell lines SK-BR-3, SW-620, A-549, BT-474, Jurkat Clone E6-1, AU-565, and SK-OV-3 were obtained from American Type Culture Collection (Rockville, Md., USA). FaDu, BxPC-3, HeLa, MV4-11, and RAJI cell lines were obtained from Deutsche Sammlung von Mikroorganismen und Zellkulturen ([…], Germany). Jurkat NucLight Red cells were obtained from Essen BioScience Inc. (Ann Arbor, Mich., USA). SK-BR-3 and SK-OV-3 cells were cultured in McCoys 5A medium (Lonza; Walkersville, Md., USA) supplemented with 10% v/w Fetal Bovine Serum (FBS), Heat-inactivated (HI) (Gibco-Life Technologies; Carlsbad, Calif.) and 80 U/mL Pen/Strep (Gibco-Life Technologies), at 37° C. in a humidified incubator under 5% CO2 atmosphere. […]
Cells in complete growth medium were plated in 96-well plates (90 μL/well) and incubated at 37° C., 5% CO2 at the following cell densities: 6500 SK-BR-3, 4000 SW-620, 2500 A-549, 10000 BT-474, 3000 Jurkat Clone E6-1, 5000 AU-565, 1250 FaDu, 1250 BxPC-3, 1000 HeLa, 7500 MV4-11, 1000 RAJI, 3000 Jurkat NucLight Red, and 4000 SK-OV-3 cells per well. […] Percentage cell survival was calculated by dividing the measured luminescence for each free drug or ADC according to the concentration with the average mean of untreated cells (1% or 0.1% DMSO control (for free drugs) or 100% complete growth medium (for ADCs)) multiplied by 100. […]

[2] = SK-BR-3, 24 h, free antifolate drugs, Table 1d

| SMILES | IC50 (BxPC-3 cells) | IC50 (FaDu cells) | IC50 ([1]; 24 h, Table 1d) | IC50 ([1]; Table 1c) | IC50 (SK-BR-3 cells; [2]) | IC50 (SK-BR-3 cells; SK-BR-3, free antifolate drugs, Table 1c) | IC50 (AU-565 cells) | IC50 (HeLa cells) | IC50 (RAJI cells) | IC50 (MV4-11 cells) | IC50 (Jurkat Clone E6-1 cells) |
| --- | --- | --- | --- | --- | --- | --- | --- | --- | --- | --- | --- |
| Nc1ccc(C(=O)NCCC[C@H](NC(=O)c2ccc(CCc3ccc4nc(N)nc(N)c4c3Cl)cc2)C(=O)O)c(-c2nnn[nH]2)c1 [XT123, (S)-5-(4-amino-2-(1H-tetrazol-5-yl)benzamido)-2-(4-(2-(2,4-diamino-5-chloroquinazolin-6-yl)ethyl)benzamido)pentanoic acid] | 0.71 nM | 0.19 nM | 0.79 nM | 0.6 nM | 0.63 nM | 0.44 nM | 0.35 nM | 0.11 nM | 0.6 nM | 0.62 nM | – |
| Nc1ccc(C(=O)NCCC[C@H](NC(=O)c2ccc(CCc3cnc4nc(N)nc(N)c4n3)cc2O)C(=O)O)c(-c2nnn[nH]2)c1 [XT162, (S)-5-(4-Amino-2-(1H-tetrazol-5-yl)benzamido)-2-(4-(2-(2,4-diaminopteridin-6-yl)ethyl)-2-hydroxybenzamido)pentanoic acid] | 0.78 nM | 0.44 nM | 0.66 nM | – | 0.86 nM | – | – | – | – | – | 0.78 nM |

From patent US20230144211A1, “ANTIFOLATE LINKER-DRUGS AND ANTIBODY-DRUG CONJUGATES” (Byondis B.V., priority 2020, published 2023)
